Values of other authors as cited in patent publication US20210145841A1, “ENHANCEMENT OF DELIVERY OF LIPOPHILIC ACTIVE AGENTS ACROSS THE BLOOD-BRAIN BARRIER AND METHODS FOR TREATING CENTRAL NERVOUS SYSTEM DISORDERS” (POVIVA CORP., priority 2018, published 2021).

Conditions: in vivo

In the case of `CC1=CC[C@H]2C[C@@H]1C2(C)C` [α-Pinene, (1S,5S)-2,6,6-Trimethylbicyclo[3.1.1]hept-2-ene], the human pulmonary uptake is listed as 60%.
